# *1 amine or outer side, *2 acyl side, *3 side chain or, on linkers, in order; H or OH if unused. Where a SMILES comes first, the peptide text is derived from it. Bridges are numbered along the chain shown (N, C = ends). [ ]: non-standard residue; d: D form. X1 = CC(C)CCCCCCCCC[C@H](CC(=O)[*:1])O[*:2]
# What was measured:
# [1] = test system: Klebsiella planticola MTCC 530; experiment: Microtiter broth dilution MIC; type: cell-based; conditions: Klebsiella planticola MTCC 530, 24 h, 35° C.
# Protocol: (§1) The antimicrobial activity of Microsan and M-EPS-Au-NP was determined using the microtiter broth dilution method [Kumar, C. G. and Mamidyala, S. K. (2011) Coll. Surf B: Biointerf. 84, 462-466]. Different bacterial pathogens (10^7 cfu ml^−1 cells) were inoculated in 100 μl of Muller-Hinton broth. Different concentrations of Microsan, M-EPS-Au-NP and Brevisan were added to each strain and incubated for 24 h at 35° C. After incubation, 40 μl of p-iodonitrotetrazolium (INT, Sigma) dye (0.02%, 20 mg INT dissolved in 100 ml of 40% dimethyl formamide was added to each well and incubated for 2 h. The reduction of p-iodonitrotetrazolium was spectroscopically measured at 450 nm using TRIAD multimode reader (Dynex Technologies, Inc., Chantilly, Va.) to determine the minimum inhibitory concentration (MIC) values. Commercially available surfactin (CAS 24730-31-2; Sigma-Aldrich) and laminarin (CAS No 9008-22-4; Sigma-Aldrich) used as positive controls were run in parallel for comparison. The MIC values of Microsan and M-EPS-Au-NP observed against the tested bacterial strains are shown in Table 3.
# [2] = test system: Pseudomonas aeruginosa MTCC 2453; experiment: Microtiter broth dilution MIC; type: cell-based; conditions: Pseudomonas aeruginosa MTCC 2453, 24 h, 35° C.
# Protocol: as §1
# [3] = test system: Staphylococcus aureus MLS16 MTCC 2940; experiment: Microtiter broth dilution MIC; type: cell-based; conditions: Staphylococcus aureus MLS16 MTCC 2940, 24 h, 35° C.
# Protocol: as §1
# [4] = test system: Micrococcus luteus MTCC 2470; experiment: Microtiter broth dilution MIC; type: cell-based; conditions: Micrococcus luteus MTCC 2470, 24 h, 35° C.
# Protocol: as §1
# [5] = test system: Bacillus subtilis MTCC 121; experiment: Microtiter broth dilution MIC; type: cell-based; conditions: Bacillus subtilis MTCC 121, 24 h, 35° C.
# Protocol: as §1
# [6] = test system: Escherichia coli MTCC 739; experiment: Microtiter broth dilution MIC; type: cell-based; conditions: Escherichia coli MTCC 739, 24 h, 35° C.
# Protocol: as §1
# [7] = test system: Staphylococcus aureus MTCC 96; experiment: Microtiter broth dilution MIC; type: cell-based; conditions: Staphylococcus aureus MTCC 96, 24 h, 35° C.
# Protocol: as §1
# [8] = Superoxide anion scavenging (PMS/NADH method); type: biochemical; conditions: cell free
# Protocol: (§2) The antioxidant activity of Microsan from Microbacterium sp. strain BS-2 and Brevisan from Brevibacillus sp. strain BS-207 in cell free system was measured by its inhibitory activity on the generation of DPPH free radicals, superoxide anions (O^2−), lipid peroxidation and erythrocyte hemolysis. The DPPH free radical scavenging assay was performed using 2,2-diphenyl-1-picrylhydrazyl (DPPH) free radical scavenging method [Ara. N. and Hasan, N. (2009) Res. J. Med. Medical Sci. 4, 107-110]. Different concentrations of Microsan and Brevisan were mixed individually with 150 μl of 160 μM methanolic solution of DPPH and incubated at 35° C. for 30 min in dark. The effective concentration (EC50) was calculated by measuring the absorbance of the samples at 517 nm. The superoxide anion scavenging was measured using phenazine methosulfate-nicotinamide adenine dinucleotide (PMS/NADH) method as previously described [Liu, F., Ooi, V. E. and Chang, S. T. (1997) Life Sci. 60, 763-771]. The lipid peroxidation assay was performed using the previously described method [Zhang, Q., Yu, P., Li, Z., Zhang, H., Xu, Z. and Li, P. (2003) J. Appl. Phycol. 15, 305-310] which is based on measuring the lipid peroxide decomposed product malondialdehyde (MDA). […] Samples were incubated at 37° C. for 30 min and the absorbance was measured at 540 nm. […]
# [9] = Lipid peroxidation assay (malondialdehyde); type: biochemical; conditions: cell free
# Protocol: as §2
# [10] = DPPH free radical scavenging assay (cell free); type: biochemical; conditions: 35° C., 30 min
# Protocol: as §2
# erythrocytes = experiment: Erythrocyte hemolysis assay (H2O2); type: cell-based; conditions: Erythrocyte, 0.5 h; human erythrocytes, H2O2, 37° C., 30 min; read-out: EC50 erythrocyte hemolysis inhibition
# Protocol: as §2
compound,measurement,setting,value
CC(C)CCCCCCCCC[C@@H]1CC(=O)N[C@@H](CCC(=O)O)C(=O)N[C@@H](CC(C)C)C(=O)N[C@H](CC(C)C)C(=O)N[C@@H](C(C)C)C(=O)N[C@@H](CC(=O)O)C(=O)N[C@H](CC(C)C)C(=O)N[C@@H](CC(C)C)C(=O)O1 [Surfactin] (EL[dL]VD[dL]L; linker N-C via X1),MIC,"[1]; MTCC530, read-out: Minimum inhibitory concentration (MIC)",9.37 µg/mL
same,MIC,"[2]; MTCC2453, read-out: Minimum inhibitory concentration (MIC)",18.8 µg/mL
same,MIC,"[3]; MTCC2940, read-out: Minimum inhibitory concentration (MIC)",18.8 µg/mL
same,MIC,"[4]; MTCC2470, read-out: Minimum inhibitory concentration (MIC)",18.8 µg/mL
same,MIC,"[5]; MTCC121, read-out: Minimum inhibitory concentration (MIC)",4.68 µg/mL
same,MIC,"[6]; MTCC739, read-out: Minimum inhibitory concentration (MIC)",9.37 µg/mL
same,MIC,"[7]; MTCC96, read-out: Minimum inhibitory concentration (MIC)",9.37 µg/mL
"O=C1O[C@H]([C@@H](O)CO)C(O)=C1O [ascorbic acid, reference compound]",EC50 superoxide anions (O^2−) scavenging,[8],21.1 µg/mL
same,EC50 lipid peroxidation inhibition,[9],130.97 µg/mL
same,EC50 DPPH free radical scavenging,[10],40.28 µg/mL
same,EC50,erythrocytes,120 µg/mL
Laminarin,Minimum inhibitory concentration (MIC),[1],4.68 µg/mL
same,Minimum inhibitory concentration (MIC),[2],4.68 µg/mL
same,Minimum inhibitory concentration (MIC),[3],37.5 µg/mL
same,Minimum inhibitory concentration (MIC),[4],4.68 µg/mL
same,Minimum inhibitory concentration (MIC),[5],9.37 µg/mL
same,Minimum inhibitory concentration (MIC),[6],18.75 µg/mL
same,Minimum inhibitory concentration (MIC),[7],18.75 µg/mL
